According to ChEMBL document CHEMBL3091359, “Potent oxazolidinone antibacterials with heteroaromatic C-ring substructure” (ACS Med Chem Lett, 2013):
In brackets after ≈: the same amount, converted by molar mass.

How the values were obtained:
Staphylococcus aureus [1] = assay: Antibacterial activity against Staphylococcus aureus SR20549 clinical isolate assessed as […] by CLSI broth microdilution method; type: functional
Moraxella catarrhalis = assay: Antibacterial activity against Moraxella catarrhalis SR26840 clinical isolate assessed as […] by CLSI broth microdilution method; type: functional
Haemophilus influenzae = assay: Antibacterial activity against Haemophilus influenzae SR27914 clinical isolate assessed as […] by CLSI broth microdilution method; type: functional
Streptococcus pneumoniae [2] = assay: Antibacterial activity against Streptococcus pneumoniae SR26207 clinical isolate assessed as […] by CLSI broth microdilution method; type: functional
Enterococcus faecalis = assay: Antibacterial activity against Enterococcus faecalis SR1004 clinical isolate assessed as […] by CLSI broth microdilution method; type: functional
Enterococcus faecium = assay: Antibacterial activity against Enterococcus faecium SR7940 clinical isolate assessed as […] by CLSI broth microdilution method; type: functional
Staphylococcus aureus [3] = assay: Antibacterial activity against Staphylococcus aureus Smith clinical isolate assessed as […] by CLSI broth microdilution method; type: functional
Staphylococcus aureus [4] = assay: Antibacterial activity against methicillin-resistant Staphylococcus aureus SR3637 clinical isolate assessed as […] by CLSI broth microdilution method; type: functional
Streptococcus pneumoniae [5] = assay: Antibacterial activity against penicillin-resistant Streptococcus pneumoniae SR11031 clinical isolate assessed as […] by CLSI broth microdilution method; type: functional
Staphylococcus aureus [6] = assay: Ratio of linezolid MIC to compound MIC for Staphylococcus aureus SR20549 clinical isolate; type: functional
Staphylococcus aureus [7] = assay: Antibacterial activity against linezolid-resistant Staphylococcus aureus NRS271 clinical isolate harboring G2576T mutation in peptidyl transferase center domain V of 23S rRNA gene assessed as […] by CLSI broth microdilution method; type: functional
Staphylococcus aureus [8] = assay: Ratio of linezolid MIC to compound MIC for Staphylococcus aureus Smith clinical isolate; type: functional
Staphylococcus aureus [9] = assay: Antibacterial activity against methicillin-resistant Staphylococcus aureus SR3637 clinical isolate infected in iv dosed JCL/ICR systemic infection model assessed as mortality administered after 1 hr of infection measured for 7 days; type: functional
Staphylococcus aureus [10] = assay: Antibacterial activity against methicillin-resistant Staphylococcus aureus SR3637 clinical isolate infected in po dosed JCL/ICR systemic infection model assessed as mortality administered after 1 hr of infection measured for 7 days; type: functional
MAO-B = biological target: T1, MAO-B (Rattus norvegicus, UniProt P19643); assay: Inhibition of rat forebrain MAO-B using [14C]PEA as substrate at 30 uM preincubated for 20 mins followed by substrate addition measured after 10 mins by liquid scintillation counting analysis; details: probe [14C]PEA
T1 sequence (P19643 whole entry): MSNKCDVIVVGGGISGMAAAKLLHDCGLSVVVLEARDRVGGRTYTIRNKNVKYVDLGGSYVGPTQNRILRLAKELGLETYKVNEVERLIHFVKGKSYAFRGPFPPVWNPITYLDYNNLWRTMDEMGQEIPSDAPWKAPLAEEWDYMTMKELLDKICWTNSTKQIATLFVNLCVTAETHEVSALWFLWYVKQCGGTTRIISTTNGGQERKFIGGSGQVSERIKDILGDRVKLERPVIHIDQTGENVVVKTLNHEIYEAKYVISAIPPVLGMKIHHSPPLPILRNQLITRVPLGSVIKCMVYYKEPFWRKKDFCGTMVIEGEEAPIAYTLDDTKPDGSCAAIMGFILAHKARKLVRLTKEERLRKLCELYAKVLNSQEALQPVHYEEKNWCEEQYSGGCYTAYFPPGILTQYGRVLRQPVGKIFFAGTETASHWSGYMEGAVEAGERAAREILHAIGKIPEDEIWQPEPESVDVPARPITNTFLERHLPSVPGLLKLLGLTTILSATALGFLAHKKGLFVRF

Cytochrome P450 2C9 = Cytochrome P450 2C9 (Homo sapiens, UniProt P11712); assay: Inhibition of human CYP2C9 assessed as tolbutamide hydroxylation after 20 mins by LC-MS/MS analysis; type: ADME
Cytochrome P450 1A2 = biological target: T2, Cytochrome P450 1A2 (Homo sapiens, UniProt P05177); assay: Inhibition of human CYP1A2 assessed as ethoxyresorufin O-deethylation after 20 mins by fluorescence plate reader; type: ADME
T2 sequence (P05177 whole entry): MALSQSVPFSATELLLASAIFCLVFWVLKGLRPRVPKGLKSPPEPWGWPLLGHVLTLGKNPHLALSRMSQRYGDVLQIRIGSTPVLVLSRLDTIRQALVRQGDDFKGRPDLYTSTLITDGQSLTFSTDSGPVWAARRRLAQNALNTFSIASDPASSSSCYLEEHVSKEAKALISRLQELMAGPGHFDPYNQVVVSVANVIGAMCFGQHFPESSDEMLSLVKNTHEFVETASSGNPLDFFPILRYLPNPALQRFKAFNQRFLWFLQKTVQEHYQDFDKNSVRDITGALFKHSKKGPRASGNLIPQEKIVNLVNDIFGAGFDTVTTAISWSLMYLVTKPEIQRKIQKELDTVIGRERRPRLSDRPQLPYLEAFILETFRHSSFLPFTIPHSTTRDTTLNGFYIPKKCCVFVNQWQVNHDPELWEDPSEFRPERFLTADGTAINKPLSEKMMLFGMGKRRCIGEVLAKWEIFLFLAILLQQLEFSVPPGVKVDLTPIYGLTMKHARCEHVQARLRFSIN

Cytochrome P450 3A4 = Cytochrome P450 3A4 (Homo sapiens, UniProt P08684); assay: Inhibition of human CYP3A4 assessed as terfenadine hydroxylation after 20 mins by LC-MS/MS analysis; type: ADME
MAO-A = biological target: T3, MAO-A (Rattus norvegicus, UniProt P21396); assay: Inhibition of rat forebrain MAO-A using [14C]5-HT as substrate at 30 uM preincubated for 20 mins followed by substrate addition measured after 5 mins by liquid scintillation counting analysis; details: probe [14C]5-HT
T3 sequence (P21396 whole entry): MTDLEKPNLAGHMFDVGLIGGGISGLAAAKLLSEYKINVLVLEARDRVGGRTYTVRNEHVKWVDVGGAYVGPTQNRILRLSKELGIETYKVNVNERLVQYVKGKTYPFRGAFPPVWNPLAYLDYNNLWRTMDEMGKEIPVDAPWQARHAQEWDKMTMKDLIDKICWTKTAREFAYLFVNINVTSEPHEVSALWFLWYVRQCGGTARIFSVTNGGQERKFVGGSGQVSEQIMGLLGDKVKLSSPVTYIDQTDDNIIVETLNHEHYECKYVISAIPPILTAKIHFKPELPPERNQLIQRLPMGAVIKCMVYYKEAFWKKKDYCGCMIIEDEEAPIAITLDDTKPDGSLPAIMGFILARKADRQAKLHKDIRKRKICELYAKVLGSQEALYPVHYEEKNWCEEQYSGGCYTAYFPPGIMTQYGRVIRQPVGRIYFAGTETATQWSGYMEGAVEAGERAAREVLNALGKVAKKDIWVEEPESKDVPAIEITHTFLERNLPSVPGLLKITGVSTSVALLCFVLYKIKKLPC

Cytochrome P450 2D6 = Cytochrome P450 2D6 (Homo sapiens, UniProt P10635); assay: Inhibition of human CYP2D6 assessed as dextromethorphan O-demethylation after 20 mins by LC-MS/MS analysis; type: ADME
Chain of Cytochrome P450 2D6 (P10635 whole entry): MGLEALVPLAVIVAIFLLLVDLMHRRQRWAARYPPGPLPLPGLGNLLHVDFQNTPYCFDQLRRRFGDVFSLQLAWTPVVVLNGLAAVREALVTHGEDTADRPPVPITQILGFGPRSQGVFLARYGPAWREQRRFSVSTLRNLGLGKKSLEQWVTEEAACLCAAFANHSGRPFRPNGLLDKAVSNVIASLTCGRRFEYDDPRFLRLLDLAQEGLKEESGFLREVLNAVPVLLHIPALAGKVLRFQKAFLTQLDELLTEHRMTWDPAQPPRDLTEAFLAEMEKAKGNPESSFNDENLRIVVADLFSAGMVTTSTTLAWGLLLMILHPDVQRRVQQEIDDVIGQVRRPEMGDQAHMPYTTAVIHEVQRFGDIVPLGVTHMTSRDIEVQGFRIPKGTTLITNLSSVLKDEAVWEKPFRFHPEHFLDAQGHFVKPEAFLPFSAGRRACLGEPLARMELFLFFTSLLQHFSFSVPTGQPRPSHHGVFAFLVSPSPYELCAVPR

Chain of Cytochrome P450 3A4 (P08684 whole entry): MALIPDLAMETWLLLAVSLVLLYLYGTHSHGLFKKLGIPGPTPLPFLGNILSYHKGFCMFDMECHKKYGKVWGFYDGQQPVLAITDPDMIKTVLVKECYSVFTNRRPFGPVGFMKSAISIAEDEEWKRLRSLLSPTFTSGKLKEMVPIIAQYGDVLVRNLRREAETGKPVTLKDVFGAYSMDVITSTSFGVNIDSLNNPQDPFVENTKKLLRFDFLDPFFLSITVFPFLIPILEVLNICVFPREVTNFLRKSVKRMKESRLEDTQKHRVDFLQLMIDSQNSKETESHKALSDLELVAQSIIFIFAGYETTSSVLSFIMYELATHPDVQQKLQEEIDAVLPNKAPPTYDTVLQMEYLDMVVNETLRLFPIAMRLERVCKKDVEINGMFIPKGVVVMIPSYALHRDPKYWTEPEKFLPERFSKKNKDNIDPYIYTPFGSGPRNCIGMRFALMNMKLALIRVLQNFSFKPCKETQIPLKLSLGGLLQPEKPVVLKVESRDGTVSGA
Chain of Cytochrome P450 2C9 (P11712 whole entry): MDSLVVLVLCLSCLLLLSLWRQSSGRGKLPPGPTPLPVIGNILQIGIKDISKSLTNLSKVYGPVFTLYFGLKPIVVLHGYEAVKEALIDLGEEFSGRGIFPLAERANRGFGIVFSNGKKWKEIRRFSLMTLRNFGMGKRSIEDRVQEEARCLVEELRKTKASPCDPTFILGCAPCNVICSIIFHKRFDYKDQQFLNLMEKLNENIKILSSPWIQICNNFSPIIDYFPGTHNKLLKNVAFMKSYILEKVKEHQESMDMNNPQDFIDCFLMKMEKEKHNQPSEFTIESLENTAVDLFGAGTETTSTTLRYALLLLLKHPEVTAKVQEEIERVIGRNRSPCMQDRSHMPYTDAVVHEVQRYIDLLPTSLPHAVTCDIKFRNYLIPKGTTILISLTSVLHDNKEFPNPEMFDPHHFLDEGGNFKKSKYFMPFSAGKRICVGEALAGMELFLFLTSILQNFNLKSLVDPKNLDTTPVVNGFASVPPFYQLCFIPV

CC(=O)NC[C@H]1CN(c2ccc(-c3ccc4ccnn4c3)c(F)c2)C(=O)O1
MIC (Staphylococcus aureus [1]): 0.25 µg/mL (≈ 0.679 µM)
MIC (Moraxella catarrhalis): 2 µg/mL (≈ 5.43 µM)
MIC (Haemophilus influenzae): 8 µg/mL (≈ 21.7 µM)
MIC (Streptococcus pneumoniae [2]): ≤ 0.063 µg/mL
MIC (Enterococcus faecalis): 0.5 µg/mL (≈ 1.36 µM)
MIC (Enterococcus faecium): 0.25 µg/mL (≈ 0.679 µM)
MIC (Staphylococcus aureus [3]): 0.5 µg/mL (≈ 1.36 µM)
MIC (Staphylococcus aureus [4]): 0.25 µg/mL (≈ 0.679 µM)
MIC (Streptococcus pneumoniae [5]): ≤ 0.063 µg/mL
Ratio (Staphylococcus aureus [6]): 8
MIC (Staphylococcus aureus [7]): 2 µg/mL (≈ 5.43 µM)
Ratio (Staphylococcus aureus [8]): 4
ED50 (Staphylococcus aureus [9]): > 10 mg/kg

CC(=O)NC[C@H]1CN(c2ccc(-c3ccc4cncn4c3)c(F)c2)C(=O)O1
MIC (Staphylococcus aureus [1]): 0.25 µg/mL (≈ 0.679 µM)
MIC (Moraxella catarrhalis): 4 µg/mL (≈ 10.9 µM)
MIC (Haemophilus influenzae): 8 µg/mL (≈ 21.7 µM)
MIC (Streptococcus pneumoniae [2]): ≤ 0.063 µg/mL
MIC (Enterococcus faecalis): 0.5 µg/mL (≈ 1.36 µM)
MIC (Enterococcus faecium): 0.5 µg/mL (≈ 1.36 µM)
MIC (Staphylococcus aureus [3]): 1 µg/mL (≈ 2.71 µM)
MIC (Staphylococcus aureus [4]): 0.5 µg/mL (≈ 1.36 µM)
MIC (Streptococcus pneumoniae [5]): ≤ 0.063 µg/mL
Ratio (Staphylococcus aureus [6]): 2
MIC (Staphylococcus aureus [7]): 4 µg/mL (≈ 10.9 µM)
Ratio (Staphylococcus aureus [8]): 2
ED50 (Staphylococcus aureus [9]): 3.05 mg/kg

CC(=O)NC[C@H]1CN(c2ccc(-c3ccc4nccn4c3)c(F)c2)C(=O)O1
MIC (Staphylococcus aureus [1]): 0.5 µg/mL (≈ 1.36 µM)
MIC (Moraxella catarrhalis): 8 µg/mL (≈ 21.7 µM)
MIC (Haemophilus influenzae): 4 µg/mL (≈ 10.9 µM)
MIC (Streptococcus pneumoniae [2]): ≤ 0.063 µg/mL
MIC (Enterococcus faecalis): 0.5 µg/mL (≈ 1.36 µM)
MIC (Enterococcus faecium): 0.25 µg/mL (≈ 0.679 µM)
ED50 (Staphylococcus aureus [10]): 3.05 mg/kg
MIC (Staphylococcus aureus [3]): 1 µg/mL (≈ 2.71 µM)
MIC (Staphylococcus aureus [4]): 0.5 µg/mL (≈ 1.36 µM)
MIC (Streptococcus pneumoniae [5]): ≤ 0.063 µg/mL
Ratio (Staphylococcus aureus [6]): 4
MIC (Staphylococcus aureus [7]): 8 µg/mL (≈ 21.7 µM)
Ratio (Staphylococcus aureus [8]): 2
ED50 (Staphylococcus aureus [9]): 3.17 mg/kg

CC(=O)NC[C@H]1CN(c2ccc(-c3ccn4ccnc4c3)c(F)c2)C(=O)O1
MIC (Staphylococcus aureus [1]): 0.25 µg/mL (≈ 0.679 µM)
MIC (Moraxella catarrhalis): 2 µg/mL (≈ 5.43 µM)
MIC (Haemophilus influenzae): 2 µg/mL (≈ 5.43 µM)
MIC (Streptococcus pneumoniae [2]): ≤ 0.063 µg/mL
inhibition at 10 min, 30 µM (MAO-B): 52.8%
MIC (Enterococcus faecalis): 0.25 µg/mL (≈ 0.679 µM)
MIC (Enterococcus faecium): 0.5 µg/mL (≈ 1.36 µM)
IC50 (Cytochrome P450 2C9): > 20 µM
IC50 (Cytochrome P450 1A2): > 20 µM
ED50 (Staphylococcus aureus [10]): 1.05 mg/kg
MIC (Staphylococcus aureus [3]): 0.25 µg/mL (≈ 0.679 µM)
IC50 (Cytochrome P450 3A4): > 20 µM
MIC (Staphylococcus aureus [4]): 0.25 µg/mL (≈ 0.679 µM)
MIC (Streptococcus pneumoniae [5]): ≤ 0.063 µg/mL
Ratio (Staphylococcus aureus [6]): 8
MIC (Staphylococcus aureus [7]): 2 µg/mL (≈ 5.43 µM)
inhibition at 5 min, 30 µM (MAO-A): 54.8%
IC50 (Cytochrome P450 2D6): > 20 µM
Ratio (Staphylococcus aureus [8]): 8
ED50 (Staphylococcus aureus [9]): 1.09 mg/kg

CC(=O)NC[C@H]1CN(c2ccc(-c3ccc4ncnn4c3)c(F)c2)C(=O)O1
MIC (Staphylococcus aureus [1]): 0.5 µg/mL (≈ 1.35 µM)
MIC (Moraxella catarrhalis): 8 µg/mL (≈ 21.7 µM)
MIC (Haemophilus influenzae): 4 µg/mL (≈ 10.8 µM)
MIC (Streptococcus pneumoniae [2]): ≤ 0.063 µg/mL
MIC (Enterococcus faecalis): 0.5 µg/mL (≈ 1.35 µM)
MIC (Enterococcus faecium): 0.5 µg/mL (≈ 1.35 µM)
MIC (Staphylococcus aureus [3]): 0.5 µg/mL (≈ 1.35 µM)
MIC (Staphylococcus aureus [4]): 0.5 µg/mL (≈ 1.35 µM)
MIC (Streptococcus pneumoniae [5]): ≤ 0.063 µg/mL
Ratio (Staphylococcus aureus [6]): 2
MIC (Staphylococcus aureus [7]): 8 µg/mL (≈ 21.7 µM)
Ratio (Staphylococcus aureus [8]): 4
